From US20090271892A1, “LYSOPHOSPHATIDIC ACID ACYLTRANSFERASE GENES AND USES THEREOF” (priority 2006, published 2009)
Numbering of substitutions follows the chain as printed. Read-outs that look alike come from different tables or passages of the source. Blank lines part the entries; values can stand above or below the molecule they belong to.

What was measured:
[1] = molecular target: Brassica napus LPAAT (BnLPAAT) (Brassica napus, UniProt Q9XFW4); experiment: Competitive LPAAT assay using C18:1-CoA and C19CA-CoA; format: biochemical
Description: (§1) The ^3H-oleoyl-lysophosphatidic acid (^3HLPA, ref. NET1100; 600 μM, 28 mCi mmol^−1) and ^14C-Oleoyl-CoA (^14CC18:1-CoA, ref. NET651A; 300 μM, 11 mCi mmol^−1) radio-labeled substrates were purchased from Perkin Elmer. Assays were carried out in a final volume of 300 μl and contained Tris/HCl (100 mM, pH7.5), Triton X-100 (0.01% w/v), BSA (1 mg/ml), ascorbic acid (10 mM), EDTA (2 mM), 100 μl LPA and 50 μl acyl-CoA. The reaction was started by the addition of 30 μl of microsomes, and conducted in a glass vial placed in a Eppendorf Thermomixer-compact apparatus (30° C., 350 rpm). The reaction was stopped after incubation (from 0 to 120 min) by addition of 720 μl of chloroform/methanol (1:1). To separate the phases, 280 μl of 1M KCl in 0.2 M H3PO4 were added and the whole mixture was vortexed for 10 s before centrifugation at 1300 g, 5 min at room temperature. The upper aqueous phase was discarded and 2×25 μl of the remaining organic phase was spotted on to silica gel 60 ÅF254 TLC plates (ref. 1.05715, Merck) and developed in chloroform/methanol/NH4OH/water (65:25:0.9:3). The phosphatidic acid spot was visualized by iodine revelation and collected for scintillation counting.
(§2) Radioactivity measurement was performed in 10 mL Ultimagold (ref. 6013329, Perkin Elmer) using a liquid scintillation analyzer (Tri-Carb 2100TR, Packard) for determination of ^3H and ^14C separately.
(§3) […] For all experimental conditions, data are derived from three experiments with 4 replicates each.
(§4) LPAAT selectivity for the two substrates is calculated as follows:
(§5) Selectivity for C18:1-CoA: S^C18:1-CoA=^14C/^3H
(§6) Selectivity for C19CA-CoA: S^C19:1CA-CoA=(^3H—^14C)/^3H
(§7) in which, ^3H and ^14C are the molar quantity of produced PA and the molar quantity of ^14C18:1 incorporated into this PA. These molar quantities are calculated from the corresponding ^3H and ^14C radioactivity levels measured in the phosphatidic acid spots scraped from TLC plates. Selectivity is expressed as the fraction of the specific fatty acid incorporated out of the total incorporated at the sn-2 position.

[2] = molecular target: Litchi sinensis LPAAT (LsLPAAT) (Litchi chinensis, UniProt A0A346D9Z1); experiment: as above; format: biochemical
Description: as §1, §2, §3, §4, §5, §6, §7

[3] = as above; format: biochemical; details: for use of C19CA-CoA as substrate: competitive assays using C19CA-CoA and C18:1-CoA
Description: as §1, §2, §3, §4, §5, §6, §7

[4] = substrate: CCCCCCCC/C=C\CCCCCCCC(=O)SCCNC(=O)CCNC(=O)[C@H](O)C(C)(C)COP(=O)(O)OP(=O)(O)OC[C@H]1O[C@@H](n2cnc3c(N)ncnc32)[C@H](O)[C@@H]1OP(=O)(O)O; experiment: LPAAT assay, kinetic parameters with C18:1-CoA, E. coli JC201 microsomes; format: biochemical, Brassica napus; details: other: C18:1-CoA 0-50 μM, 10 min, 30° C., pH7.5, N = 3, pH 7.5
Description: FIG. 1: Kinetics of phosphatidic acid synthesis using ^14C-C18:1-CoA on ^3H-LPA as substrates and Brassica napus (SEQ ID No 5) and Litchi microsomal (SEQ ID NO 1) LPAATs as enzymes. Duplicate measurements for one experiment are shown.
The following experiments were performed with the Escherichia coli JC201 mutant strain, which is temperature conditional in endogenous LPAAT activity and able to grow at 30° C. but not at 44° C. (genotype plsC, described in Coleman, 1990 J. Biol. Chem., 265 (28), 17215-21.). These bacteria were kept at −80° C. as 1 ml glycerol stocks. For E. coli JC201 transformation, one glycerol stock was diluted in 15 mL of Luria-Bertani (ref. L3022, Sigma) liquid medium and cultivated overnight at 30° C. Then, 1 mL was used to inoculate flasks containing 15 mL of fresh liquid LB medium. Optical density was measured at 600 nm and each flask was then cultivated for 6 hours at 30 and 44° C. respectively in order to check by optical density measurement that bacterial growth occurs at 30° C. but not at 44° C. One of the cultures obtained at 30° C. was then centrifuged at 4500 g/4° C. for 10 min. Supernatant was discarded and the pellet was kept on ice for 2 hours. The pellet was washed three time with 15 mL sterile distilled water and then twice with 15 mL distilled sterile water containing 10% (weight/volume) glycerol (centrifugation condition: 4500 g/4° C./10 min). […]

[5] = LPAAT assay with C18:1-CoA as substrate (microsomes of transformed E. coli); format: biochemical; details: expressed in transformed E. coli mutant strains; FIG. 1
Description: The ^3H-oleoyl-lysophosphatidic acid (^3HLPA, ref. NET1100; 600 μM, 28 mCi mmol^−1) and ^14C-Oleoyl-CoA (^14CC18:1-CoA, ref. NET651A; 300 μM, 11 mCi mmol^−1) radio-labeled substrates were purchased from Perkin Elmer. Assays were carried out in a final volume of 300 μl and contained Tris/HCl (100 mM, pH7.5), Triton X-100 (0.01% w/v), BSA (1 mg/ml), ascorbic acid (10 mM), EDTA (2 mM), 100 μl LPA and 50 μl acyl-CoA. The reaction was started by the addition of 30 μl of microsomes, and conducted in a glass vial placed in a Eppendorf Thermomixer-compact apparatus (30° C., 350 rpm). The reaction was stopped after incubation (from 0 to 120 min) by addition of 720 μl of chloroform/methanol (1:1). […]
as §2
A first LPAAT assay was performed as described above in order to determine optimal LPAAT activity using ^14CC18:1-CoA as substrate: • Effect of incubation time was tested for 0, 1, 3, 5, 10, 30, 60 and 120 min with 50 μM ^14CC18:1-CoA at 30° C. • In order to determine LPAAT kinetic parameters, the effect of C18:1-CoA concentration was tested as described above. […] For all experimental conditions, the mean of 2 values is calculated. […]

[6] = substrate: CCCCCCCC/C=C\CCCCCCCC(=O)SCCNC(=O)CCNC(=O)[C@H](O)C(C)(C)COP(=O)(O)OP(=O)(O)OC[C@H]1O[C@@H](n2cnc3c(N)ncnc32)[C@H](O)[C@@H]1OP(=O)(O)O; experiment: LPAAT assay, kinetic parameters with C18:1-CoA, E. coli JC201 microsomes; format: biochemical, Litchi sinensis; details: other: C18:1-CoA 0-50 μM, 10 min, 30° C., pH7.5, N = 5, pH 7.5
Description: The inventors have identified one putative Lysophosphatidic Acid-Acyl Transferase from Lychee (SEQ ID No 2). They also have obtained a mutated protein derived from this protein, which is depicted as SEQ ID No 1.
Plasmids pEW108 and 117 comprising genes coding for SEQ ID No 1 and SEQ ID No 2 respectively under the control of the araBAD promoter (Guzman, L-M. et al. (1995) J Bacteriology 177: 4121-4130) were prepared and used to transform and complement an E. coli strain. The araBAD promoter is induced by arabinose, repressed by glucose and is used in the art to express polynucleotides in a controlled manner.
The following experiments were performed with the Escherichia coli JC201 mutant strain, which is temperature conditional in endogenous LPAAT activity and able to grow at 30° C. but not at 44° C. (genotype plsC, described in Coleman, 1990 J. Biol. Chem., 265 (28), 17215-21.). These bacteria were kept at −80° C. as 1 ml glycerol stocks. For E. coli JC201 transformation, one glycerol stock was diluted in 15 mL of Luria-Bertani (ref. L3022, Sigma) liquid medium and cultivated overnight at 30° C. […] Optical density was measured at 600 nm and each flask was then cultivated for 6 hours at 30 and 44° C. respectively in order to check by optical density measurement that bacterial growth occurs at 30° C. but not at 44° C. […]

[7] = 50 μM C18:1-CoA, 25 μM C19CA, fraction of total incorporated at sn-2, read-out: Selectivity for C19CA-CoA in competition with C18:1-CoA
[8] = 50 μM C18:1-CoA, 50 μM C19CA, fraction of total incorporated at sn-2, read-out: Selectivity for C19CA-CoA in competition with C18:1-CoA
[9] = average over the concentrations, read-out: Average selectivity for C19CA-CoA in competition with C18:1-CoA

Sequence of Litchi sinensis LPAAT (LsLPAAT) (A0A346D9Z1 entry or part of it): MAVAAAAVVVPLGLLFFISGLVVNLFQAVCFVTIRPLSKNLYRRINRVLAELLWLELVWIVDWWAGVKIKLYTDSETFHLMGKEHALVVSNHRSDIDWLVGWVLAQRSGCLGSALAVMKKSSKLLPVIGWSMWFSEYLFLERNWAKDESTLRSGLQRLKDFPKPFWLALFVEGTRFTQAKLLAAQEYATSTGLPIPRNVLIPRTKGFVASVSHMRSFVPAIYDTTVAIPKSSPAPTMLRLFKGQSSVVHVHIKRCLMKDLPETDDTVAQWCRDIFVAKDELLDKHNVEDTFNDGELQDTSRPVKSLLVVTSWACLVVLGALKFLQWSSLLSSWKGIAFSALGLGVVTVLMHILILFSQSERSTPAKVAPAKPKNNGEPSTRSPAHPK

selectivity ratio [1, 7]: 0.01
selectivity ratio [1, 8]: 0.19
selectivity ratio [1, 9]: 0.054 ± 0.057
selectivity ratio ([2]; 25 μM C18:1-CoA, 10 μM C19CA, fraction of total incorporated at sn-2, read-out: Selectivity for C19CA-CoA in competition with C18:1-CoA): 0.15
selectivity ratio ([2]; 25 μM C18:1-CoA, 25 μM C19CA, fraction of total incorporated at sn-2, read-out: Selectivity for C19CA-CoA in competition with C18:1-CoA): 0.34
selectivity ratio [2, 7]: 0.28
selectivity ratio [2, 8]: 0.35
selectivity ratio [2, 9]: 0.377 ± 0.101
Fatty acids incorporated at the sn-2 position being 19:0CA ([2]; in competition with C18:1-CoA, even at low total concentrations of acyl-CoA): up to 35%
Molecule: CCCCCCCCC1CC1CCCCCCCC(=O)SCCNC(=O)CCNC(=O)[C@H](O)C(C)(C)COP(=O)(O)OP(=O)(O)OC[C@H]1O[C@@H](n2cnc3c(N)ncnc32)[C@H](O)[C@@H]1OP(=O)(O)O (stereo partly drawn) [C19CA-CoA]

B1: Brassica napus LPAAT (BnLPAAT, RAT1), SEQ ID No 5 (Brassica napus) (protein)
chain: MAMAAAVIVPLGILFFISGLVVNLLQAVCYVLVRPLSKNTYRKINRVVAETLWLELVWIVDWWAGVKIQVFADDETFNRMGKEHALVVCNHRSDIDWLVGWILAQRSGCLGSALAVMKKSSKFLPVIGWSMWFSEYLFLERNWAKDESTLKSGLQRLNDFPRPFWLALFVEGTRFTEAKLKAAQEYAASSELPVPRNVLIPRTKGFVSAVSNMRSFVPAIYDMTVAIPKTSPPPTMLRLFKGQPSVVHVHIKCHSMKDLPESEDEIAQWCRDQFVTKDALLDKHIAADTFAGQKEQNIGRPIKSLAVVLSWACLLTLGAMKFLHWSNLFSSWKGIALSALGLGIITLCMQILIRSSQSERSTPAKVAPAKPKDNHQSGPSSQTEVEEKQK
use of C19CA-CoA as substrate [3]: can use C19CA-CoA as substrate
selectivity for C19CA-CoA (in words) ([3]; very little incorporation of 19:0CA up to 50 μM): very low selectivity
Km [4]: 10.6 ± 6.7 µM
Vmax [4]: 0.0056 µmol/min/mg
esterification of 14C-C18:1-CoA on 3H-LPA (presence of PA in lipid fraction) [5]: fully functional

B2: Litchi sinensis LPAAT (LsLPAAT, pEW117), SEQ ID No 2 (Litchi chinensis) (protein)
chain: MAVAAAAVVVPLGLLFFISGLVVNLFQAVCFVTIRPLSKNLYRRINRVLAELLWLELVWIVDWWAGVKIKLYTDSETFHLMGKEHALVVSNHRSDIDWLVGWVLAQRSGCLGSALAVMKKSSKLLPVIGWSMWFSEYLFLERNWAKDESTLRSGLQRLKDFPKPFWLALFVEGTRFTQAKLLAAQEYATSTGLPIPRNVLIPRTKGFVASVSHMRSFVPAIYDTTVAIPKSSPAPTMLRLFKGQSSVVHVHIKRCLMKDLPETDDTVAQWCRDIFVAKDELLDKHNVEDTFNDGELQDTSRPVKSLLVVTSWACLVVLGALKFLQWSSLLSSWKGIAFSALGLGVVTVLMHILILFSQSERSTPAKVAPAKPKNNGEPSTRSQDKQK
Km [6]: 3.6 ± 1.7 µM
Vmax [6]: 0.000115 µmol/min/mg

B3: LsLPAAT: L. sinensis LPAAT; clone not stated in Table 2, probably pEW108 / SEQ ID No 1 (protein)
chain: B2 chain with Q383P, D384A, K385H, Q386P
modifications: synthetic LPAAT derived from litchi
use of C19CA-CoA as substrate [3]: can use C19CA-CoA as substrate
esterification of 14C-C18:1-CoA on 3H-LPA (presence of PA in lipid fraction) [5]: fully functional
